Reference: patent publication EP1002543A1, “Pharmaceutical compositions for the therapy of glioma or prostate cell proliferative disorders containing cyclic rgd compounds” (JCR PHARMACEUTICALS CO., LTD., priority 1998, dated 2000)

Experiments:
[1] = tested on: U-87MG cells; experiment: U-87MG-induced spheroid formation in liquid culture; assay type: cell-based, Human; settings: treated again after 48 hours, further 72 hours
Method: U-87MG cells can be grown either as a monolayer or as multicellular three-dimensional spheroids (500-1,000 µm) in liquid culture. Since spheroids closely resemble the architecture of a tumor in vivo, the cultures were contacted with cRGD or RGD to determine if treatment had any effect on spheroid formation. U-87MG cells (5 ×10^5-1×10^6) were mixed with either cRGD (100µg) or RGD (100µg) peptide or PBS (as untreated control) and incubated at 4° C for 30 minutes. Treated and untreated cells were then seeded onto 24-well plate and incubated further at 37° C. Forty eight hours later; the treated cells were treated again with respective peptides and incubated for 72 hours.
In a second study, U-87MG cells were allowed to grow (in a 24-well plate) for 24 hours before the addition of cyclic (50 µg) or linear (50 µg) peptide. One set of cells, with PBS alone, served as untreated control. Forty eight hours later, the cells were treated again with respective cRGD (50 µg) or RGD (50 µg) peptides and incubated for an additional 72 hours.

[2] = tested on: U-87MG cells; experiment: Effect of cRGD and RGD peptides on growth of human glioma cells (viable cell count by trypan blue dye exclusion; morphology under microscope); assay type: cell-based; settings: 18 hours; for % inhibition: viable cells vs untreated control
Method: (§1) Human glioblastoma, U-87MG, and U-373MG cells were obtained from the American Type Culture Collection, Rockville, MD and grown in Dulbecco's modified Eagle's medium supplemented with 10% fetal calf serum (Hyclone Laboratories Inc. Logan, UT), sodium pyruvate (55 mg/L), sodium bicarbonate (1.2 g/L), HEPES (1.2 g/L) and gentamicin (50 µg/ml). U-251MG cells were provided by Dr. G.Y. Gillespie, University of Alabama at Birmingham, Alabama, and were grown in the above media.
(§2) Semi-confluent monolayers of U-87MG, U-251MG and U-373MG cells were treated with different concentrations of cRGD for 18 hours at 37° C incubator with 5% CO2. One set of cells served as untreated control. The cells were monitored under microscope for morphological changes. Most of the cRGD (10 µg/ml)-treated U-87MG (Figure 2; C=control) and U-373MG cells were rounded up. […] The number of viable cells (both treated and untreated) were then counted by trypan blue dye exclusion method using a hemacytometer (Hausser Scientific, Horsham, PA) and percent inhibition was calculated (Table 1).

[3] = tested on: U-373MG cells; experiment: as above; assay type: cell-based; settings: 18 hours; for % inhibition: viable cells vs untreated control
Method: as §1, §2

[4] = tested on: U-251MG cells; experiment: as above; assay type: cell-based; settings: 18 hours; for % inhibition: viable cells vs untreated control
Method: as §1, §2

[5] = tested on: U-87MG cells; experiment: Effect of caspase-3 and caspase-9 inhibitors on cell death induced by cRGDfV (viable cell count, percent survival); assay type: cell-based, Human; settings: U-87MG pretreated with DEVD-FMK (10 µM) or LEHD-FMK (10 µM) for 90 minutes; cRGDfV 20 µg/ml, 18 hours
Text: To determine whether the observed killing of glioma cells was due to apoptosis, we used inhibitors of caspase-3 (DEVD-FMK) and caspase-9 (LEHD-FMK), two of the cysteine aspartyl proteases, known to be involved in apoptosis (see Salvesen GS, Dixit VM (1997) Cell 91:443-446; Cohen GM (1997) Biochem J326:1-16; Janicke RU, Sprengart ML, Wati MR, Porter AG (1998) J Biol Chem 273:9357-9360; Cardone MH, Roy N, Stennicke, HR, Salvesen GS, Franke TF, Stanbridge E, Frisch S, Reed JC (1998) Science 282:1318-1321; Sakahira H, Enari M, Nagata S (1998) Nature 391:96-99). Caspase-3 is required for morphological changes and cleavage of poly(ADP-ribose) polymerase (PARP), a cellular enzyme implicated in DNA repair mechanism. Caspase-9 is involved in cytochrome c-induced apoptosis by activating procaspase-3 which finally leads to apoptosis. Briefly, U-87MG and U-251MG cells were harvested from monolayer culture and were treated with DEVD-FMK (10 µM) or LEHD-FMK (10 µM) for 90 minutes at 37°C. One set of cells without any inhibitor served as control. Cells were then washed and incubated in the presence or absence of cRGDfV (20 µg/ml) at 37°C, 5% CO2 for 18 hours. The number of viable cells, both in control and treated groups were counted and percent survival was determined.

Compound | effect on spheroid formation ([1]; first study: 100µg peptide mixed with cells) | % inhibition ([2]; 10 ug/ml) [%] | % inhibition ([2]; 20 ug/ml) [%] | % inhibition ([3]; 10 ug/ml) [%] | % inhibition ([3]; 20 ug/ml) [%] | % inhibition ([4]; 10 ug/ml) [%] | % inhibition ([4]; 20 ug/ml) [%] | reduction of the size of the spheroids ([1]; first study: 100µg peptide mixed with cells, vs untreated control) | effect on spheroid formation ([1]; second study: cells grown 24 hours, 50 µg peptide) | number of viable cells after cRGDfV treatment [5] | morphological changes ([2]; 10 µg/ml) | morphological changes ([3]; 10 µg/ml) | morphological changes ([4]; 10 µg/ml)
N=C(N)NCCC[C@H](N)C(=O)NCC(=O)N[C@@H](CC(=O)O)C(=O)O [RGD, H-Arg-Gly-Asp-OH, reference compound] | did not appear to effect spheroid formation | 0 | 3.5 | 6.7 | 0 | 0 | 13 |  |  |  |  |  | 
cyclo(Arg-Gly-Asp-D-Phe-Val) [cRGD] |  | 52.9 | 70.6 | 46.7 | 80.0 | 0 | 5.9 | at least 70% | significant inhibitory effect on the spheroid formation | inability of cRGDfV to reduce the number of viable U-87MG cell | rounded up | rounded up | no significant morphological changes
